Measurements: patent publication US20180168208A1 (priority 2014, published 2018)
Like-named read-outs stand apart in the source and are kept apart here.

How the values were obtained:
cat T1R1/T1R3 receptor = biological target: T1, cat T1R1/T1R3 receptor (Felis catus, UniProt A0ABI7Z2I4); experiment: cell-based
T1 sequence (A0ABI7Z2I4 171-420): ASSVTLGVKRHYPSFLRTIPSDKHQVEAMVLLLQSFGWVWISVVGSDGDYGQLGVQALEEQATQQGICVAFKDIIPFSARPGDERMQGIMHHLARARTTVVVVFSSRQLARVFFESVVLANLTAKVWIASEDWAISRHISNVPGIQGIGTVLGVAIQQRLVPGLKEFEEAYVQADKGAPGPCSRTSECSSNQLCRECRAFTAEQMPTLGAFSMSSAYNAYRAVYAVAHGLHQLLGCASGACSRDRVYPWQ
T1 sequence (Q49KI5 25-865 E206Q/N523D/F654L partner): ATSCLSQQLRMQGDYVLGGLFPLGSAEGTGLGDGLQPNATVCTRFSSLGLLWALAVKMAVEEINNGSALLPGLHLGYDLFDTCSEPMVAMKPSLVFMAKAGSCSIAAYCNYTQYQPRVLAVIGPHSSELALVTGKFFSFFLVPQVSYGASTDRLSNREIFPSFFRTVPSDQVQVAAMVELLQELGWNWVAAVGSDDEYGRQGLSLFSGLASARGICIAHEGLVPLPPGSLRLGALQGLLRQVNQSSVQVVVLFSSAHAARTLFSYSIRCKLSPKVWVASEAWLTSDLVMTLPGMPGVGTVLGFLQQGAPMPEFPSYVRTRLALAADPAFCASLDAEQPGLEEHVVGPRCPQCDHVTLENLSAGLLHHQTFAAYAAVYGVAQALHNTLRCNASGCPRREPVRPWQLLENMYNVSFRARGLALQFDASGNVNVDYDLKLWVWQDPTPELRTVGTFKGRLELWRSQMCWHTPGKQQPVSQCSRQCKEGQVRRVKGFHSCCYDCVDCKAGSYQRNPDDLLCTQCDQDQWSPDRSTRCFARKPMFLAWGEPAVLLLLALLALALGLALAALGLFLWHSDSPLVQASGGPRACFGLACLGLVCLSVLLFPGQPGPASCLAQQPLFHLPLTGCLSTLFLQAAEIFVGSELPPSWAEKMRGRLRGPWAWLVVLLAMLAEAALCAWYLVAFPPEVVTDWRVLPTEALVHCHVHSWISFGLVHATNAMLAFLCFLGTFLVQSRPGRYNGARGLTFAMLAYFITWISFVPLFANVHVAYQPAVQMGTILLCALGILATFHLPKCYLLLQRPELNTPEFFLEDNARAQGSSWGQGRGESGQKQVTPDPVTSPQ
Source text: HEK293 cells that stably express T1R3 and inducibly express T1R1 were exposed to nucleotide derivatives alone or in combination with one or more amino acids and/or one or more nucleotides to activate the umami receptor. Activation of the T1R1/T1R3 receptor was detected by a change in intracellular calcium levels using a calcium sensitive fluorescent dye and/or a luminescent reporter system. Cells that express T1R3 but not T1R1 were used as a control. A FLIPR® Tetra or a FlexStation® 3 was used for data capture.

T1R1/T1R3 receptor = T1R1/T1R3 receptor (Felis catus, UniProt E3UMS2); experiment: cell-based; type: cell-based
Source text: HEK293 cells that stably express T1R3 and inducibly express T1R1 were exposed to transmembrane compounds alone or in combination with one or more amino acids and/or one or more nucleotides to activate the umami receptor. Activation of the T1R1/T1R3 receptor was detected by a change in intracellular calcium levels using a calcium sensitive fluorescent dye. Cells that express T1R3 but not T1R1 were used as a control. A FLIPR® Tetra or a FlexStation® 3 was used for data capture.
In each experiment, serial dilutions of up to 10 mM of the transmembrane compound were added to the T1R1/T1R3-expressing cells.

[1] = + Alanine, Table 17, read-out: EC50 + Alanine
[2] = +Alanine (20 mM), Table 18, read-out: EC50 +Alanine
[3] = EC50 + IMP, + IMP (0.2 mM), Table 17
[4] = EC50 +Alanine + IMP, +Alanine (20 mM) + IMP (0.2 mM), Table 18
[5] = EC50 +IMP, +IMP (0.2 mM), Table 18
[6] = compound alone in buffer, Table 17, read-out: EC50 + buffer (alone)
[7] = compound alone in buffer, Table 18, read-out: EC50 +buffer (alone)

| SMILES | Activity (cat T1R1/T1R3 receptor) | Threshold (cat T1R1/T1R3 receptor) [mM] | Thres +Alanine (T1R1/T1R3 receptor; + Alanine (20 nM), Table 17) [mM] | Max resp % of IMP + Alanine (T1R1/T1R3 receptor; + Alanine, Table 17) | Max resp ΔF/F +Alanine (T1R1/T1R3 receptor; + Alanine, Table 17) | EC50 (T1R1/T1R3 receptor; [1]) [µM] | Max resp % of ALa + IMP (T1R1/T1R3 receptor; + IMP (0.2 mM), Table 17) | Thres + IMP (T1R1/T1R3 receptor; + IMP (0.2 mM), Table 17) [mM] | Max resp ΔF/F +Alanine (T1R1/T1R3 receptor; +Alanine (20 mM), Table 18) | Thres +Alanine (T1R1/T1R3 receptor; +Alanine (20 mM), Table 18) [mM] | EC50 (T1R1/T1R3 receptor; [2]) [µM] | Max resp % of Ala +IMP (T1R1/T1R3 receptor; +IMP (0.2 mM), Table 18) | Max resp ΔF/F +IMP (T1R1/T1R3 receptor; +IMP (0.2 mM), Table 18) | EC50 (T1R1/T1R3 receptor; [3]) [µM] | EC50 (T1R1/T1R3 receptor; [4]) [µM] | EC50 (T1R1/T1R3 receptor; [5]) [µM] | EC50 (T1R1/T1R3 receptor; [6]) [µM] | EC50 (T1R1/T1R3 receptor; [7]) [µM] | other results |
| --- | --- | --- | --- | --- | --- | --- | --- | --- | --- | --- | --- | --- | --- | --- | --- | --- | --- | --- | --- |
| NC(=O)c1ncn(C2OC(COP(=O)(O)O)C(O)C2O)n1 (stereo not drawn) [Ribavirin 5′-Monophosphate] | active | 0.175 | – | – | – | – | – | – | – | – | – | – | – | – | – | – | – | – | – |
| O=c1ccn([C@H]2C[C@H](O)[C@@H](COP(O)(O)=S)O2)c(=O)[nH]1 [2′-Deoxyuridine-5′-O-monophosphosphorothioate (5′-dUMPS)] | active | 5.000 | – | – | – | – | – | – | – | – | – | – | – | – | – | – | – | – | Max resp. (ΔF/F) (cat T1R1/T1R3 receptor): 0.4200 ΔF/F; Max. resp. % of IMP (cat T1R1/T1R3 receptor): 43.4 % of IMP |
| O=c1[nH]cnc2c1ncn2C1CC(O)C(COP(O)(O)=S)O1 (stereo not drawn) [2′-Deoxyinosine-5′-O-monophosphorothioate] | active | 0.025 | – | – | – | – | – | – | – | – | – | – | – | – | – | – | – | – | – |
| NC(=O)c1ncn(C2OC(COP(=O)(O)O)C(O)C2O)c1N [5-Aminoimidazole-4-carboxamide-1-β-D-ribofuranosyl 5′-monophosphate] | active | 0.200 | – | – | – | – | – | – | – | – | – | – | – | – | – | – | – | – | EC50 (cat T1R1/T1R3 receptor): > 1000 µM |
| O=C(Nc1ccccc1Br)N[C@@H]1c2ccccc2C[C@@H]1O (stereo in doubt) [1-(2-bromophenyl)-3-((1R,2S)-2-hydroxy-2,3-dihydro-1H-inden-1-yl)urea] | – | – | 3 | 33.0 % of IMP | 0.3 | > 3000 | 44.9 % of ALa | 3 | 0.3 | 3 | > 3000 | 44.9 % of Ala | 0.378 | > 3000 | > 3000 | > 3000 | > 3000 | > 3000 | – |
| CCC(CC)NC(=O)c1ccc(OC)c(OC)c1 [3,4-dimethoxy-N-(pentan-3-yl)benzamide] | – | – | 0.3 | 43.9 % of IMP | 0.545 | > 10000 | 81.0 % of ALa | 0.5 | 0.545 | 0.3 | > 10000 | 81.0 % of Ala | 0.9975 | 2000 | > 3000 | 2000 | > 10000 | > 10000 | – |
| O=C(CN1C(=O)C(=O)N(Cc2ccccc2)C1=O)c1ccccc1 [1-benzyl-3-(2-oxo-2-phenylethyl)imidazolidine-2,4,5-trione] | – | – | 1 | 127.6 % of IMP | 1.3 | – | 135.7 % of ALa | 0.08 | 1.3 | 1 | – | 135.7 % of Ala | 1.140 | – | – | – | – | – | – |
| CCC(CC)NC(=O)c1ccc(C)c(C)c1 [3,4-dimethyl-N-(pentan-3-yl)benzamide] | – | – | 3 | 97.8 % of IMP | 1.2150 | > 3000 | 125.7 % of ALa | 0.525 | 1.2150 | 3 | > 3000 | 125.7 % of Ala | 1.5475 | 2100 | 1700 | 2100 | > 3000 | > 3000 | – |
| CCCC(C)NC(=O)c1ccc(OC)c(C)c1 (stereo not drawn) [4-methoxy-3-methyl-N-(pentan-2-yl)benzamide] | – | – | 0.050 | 126.0 % of IMP | 1.5650 | – | 128.9 % of ALa | 0.025 | 1.5650 | 0.050 | 200 | 128.9 % of Ala | 1.5875 | 100 | 30 | 100 | 400 | 400 | EC50 (T1R1/T1R3 receptor; read-out: EC50 + Alanine): 200 µM |
